Measurements as given in US8835466B2, “Synthesis and uses of pyroglutamic acid derivatives” (Prodimed, S.A., priority 2006, dated 2014).

Tests used:
[1] = system: KLN 205 cells (lung cell carcinoma); assay: Effect of 9d in combination with Cisplatin on tumour growth, KLN 205 (Example 11); assay type: in vivo, DBA/2 mice; conditions: for Tumour surface, overall values (Mean) / Tumour surface, overall values (Median) / Tumour volume, overall values (Mean) / Tumour volume, overall values (Median): Cisplatin 65 μg i.p. days 3, 6, 10, 13, 17, 20
Experimental: This was carried out by measuring two perpendicular diameters (d1/d2) with a calliper. These measures were used to obtain both tumour surface and volume: […] Results were expressed as single values and/or as the mean±SD or median from each experimental group. This assay was made in order to check the effect on in vivo tumour growth in mice challenged with KLN 205 cells. Their effect was compared with the combination of Cisplatin plus 9d and/or placebo. KLN 205 is a lung cell carcinoma originated in DBA/2 mouse strain, and therefore syngeneic in mice with DBA/2 genetic background (Kaneko T and […]. Growth characteristics and drug responses of a murine lung carcinoma in vitro and in vivo. Cancer Res. 38: 2084-2090; 1978). KLN 205 cells (CLS, Eppelheim, Germany) were maintained in vitro by serial passages every 3-4 days. […] Louis, Mo., USA) by seeding 5×10^6 cells onto 75 cm^2 culture flasks. Subcultures were carried out by collecting detached cells after treatment with trypsin-EDTA (Sigma, St. Louis, Mo., USA). Tumour cells, collected from 48 hour cultures, were used as source of KLN 205 cells for the studies described below. […] Tumours were established by subcutaneous inoculation in the right hind flank. Mice (DBA/2) were inoculated with 0.2 mL containing 2×10^5 viable KLN 205 cells. The day of subcutaneous inoculation will be considered Day 0 of the test. A case-control study was performed with treated and control mice in order to determine whether differences between placebo, 9d, Cisplatin or 9d+Cisplatin were present. […] The t-test was chosen for being one of the better known parametrical tests.

[2] = system: Lewis lung cells (lung cell carcinoma); assay: Effect of 9d in combination with Cisplatin on tumour growth, Lewis lung (Example 13); assay type: in vivo, C57BL/6J mice; conditions: for SURFACE Overall values (Mean) / SURFACE Overall values (Median) / VOLUME Overall values (Mean) / VOLUME Overall values (Median): Cisplatin 65 μg, or both
Description: This assay was made in order to check the effect on in vivo tumour growth in mice challenged with Lewis lung cells. Their effect will be compared with the combination of chemotherapeutic agents plus 9d and/or placebo. Lewis Lung is a lung cell carcinoma originated in C57BL/6J mice strain, and therefore syngeneic in mice with C57BL/6J genetic background (Rodrigo Garzón M, Tirapu Fernández de la Cuesta […], Noel […] and […]. Use of Gene Therapy in a Subcutaneous Murine Model of Lung Cancer. Arch Bronconeumology. 42: 526-532; 2006). Lewis lung cells (CLS, Eppelheim, Germany) were maintained in vitro by serial passages every 3-4 days. […] Louis, Mo., USA) by seeding 5×10^6 cells onto 75 cm^2 culture flasks. Subcultures were carried out by collecting detached cells after treatment with trypsin-EDTA (Sigma, St. Louis, Mo., USA). Tumour cells, collected from 48 hour cultures, were used as source of Lewis Lung cells for the studies described below. […] Tumours were established by subcutaneous inoculation in the right hind flank. Mice were inoculated with 0.2 mL containing 2×10^5 viable cells. The day of subcutaneous inoculation will be considered Day 0 of the test. Mice were observed daily and the tumour size recorded twice a week. This was carried out by measuring two perpendicular diameters (d1/d2) with a calliper. These measures were used to obtain both tumour surface and volume: […] Results were expressed as single values and/or as the mean±SD or median from each experimental group. A case-control study was performed with treated and control mice in order to determine whether differences between placebo, 9d, Cisplatin or 9d+Cisplatin were present. The data obtained (tumour surface and volume) were tested for Normal distribution within the groups (Kolmogorov Smirnov test p<0.05). […] The U-test of Mann Withney was chosen for being one of the better known non-parametrical tests, anyway, results for this test are equivalent both to those of Wilcoxon's sum of ranges and Kruskal-Wallis two-groups test. We excluded of the study animals that have undetectable or unscored tumour on 31th day after tumour inoculation. Due to the high dispersion of data, outlayers were excluded of the study.

[3] = 9d 250 ng, Cisplatin 65 μg i.p.
[4] = day 0 after tumour inoculation, 9d 250 ng
[5] = day 10 after tumour inoculation, 9d 250 ng
[6] = day 13 after tumour inoculation, 9d 250 ng
[7] = day 17 after tumour inoculation, 9d 250 ng
[8] = day 20 after tumour inoculation, 9d 250 ng
[9] = day 24 after tumour inoculation, 9d 250 ng
[10] = day 27 after tumour inoculation, 9d 250 ng
[11] = day 31 after tumour inoculation, 9d 250 ng
[12] = day 34 after tumour inoculation, 9d 250 ng
[13] = day 38 after tumour inoculation, 9d 250 ng
[14] = 9d 250 ng, day 0 after tumour inoculation
[15] = 9d 250 ng, day 10 after tumour inoculation
[16] = 9d 250 ng, day 13 after tumour inoculation
[17] = 9d 250 ng, day 17 after tumour inoculation
[18] = 9d 250 ng, day 20 after tumour inoculation
[19] = 9d 250 ng, day 24 after tumour inoculation
[20] = 9d 250 ng, day 27 after tumour inoculation
[21] = 9d 250 ng, day 31 after tumour inoculation

N.N.[Cl][Pt][Cl] [Cisplatin, reference compound]
Inhibition of the in vivo growth of KLN 205 cell, in words [1, 3]: inhibit the in vivo growth
Tumour surface, overall values (Mean) [1, 4]: 0 mm^2
Tumour surface, overall values (Median) [1, 4]: 0 mm^2
Tumour volume, overall values (Mean) [1, 4]: 0 mm^3
Tumour volume, overall values (Median) [1, 4]: 0 mm^3
Tumour surface, overall values (Mean) [1, 5]: 4.07 mm^2
Tumour surface, overall values (Median) [1, 5]: 4 mm^2
Tumour volume, overall values (Mean) [1, 5]: 5.1 mm^3
Tumour volume, overall values (Median) [1, 5]: 4 mm^3
Tumour surface, overall values (Mean) [1, 6]: 14.87 mm^2
Tumour surface, overall values (Median) [1, 6]: 16 mm^2
Tumour volume, overall values (Mean) [1, 6]: 31.77 mm^3
Tumour volume, overall values (Median) [1, 6]: 32 mm^3
Tumour surface, overall values (Mean) [1, 7]: 23.93 mm^2
Tumour surface, overall values (Median) [1, 7]: 20 mm^2
Tumour volume, overall values (Mean) [1, 7]: 59.1 mm^3
Tumour volume, overall values (Median) [1, 7]: 40 mm^3
Tumour surface, overall values (Mean) [1, 8]: 39.07 mm^2
Tumour surface, overall values (Median) [1, 8]: 36 mm^2
Tumour volume, overall values (Mean) [1, 8]: 119.07 mm^3
Tumour volume, overall values (Median) [1, 8]: 108 mm^3
Tumour surface, overall values (Mean) [1, 9]: 72.2 mm^2
Tumour surface, overall values (Median) [1, 9]: 72 mm^2
Tumour volume, overall values (Mean) [1, 9]: 285.43 mm^3
Tumour volume, overall values (Median) [1, 9]: 288 mm^3
Tumour surface, overall values (Mean) [1, 10]: 97.07 mm^2
Tumour surface, overall values (Median) [1, 10]: 99 mm^2
Tumour volume, overall values (Mean) [1, 10]: 445.8 mm^3
Tumour volume, overall values (Median) [1, 10]: 445.5 mm^3
Tumour surface, overall values (Mean) [1, 11]: 124.67 mm^2
Tumour surface, overall values (Median) [1, 11]: 120 mm^2
Tumour volume, overall values (Mean) [1, 11]: 637.07 mm^3
Tumour volume, overall values (Median) [1, 11]: 600 mm^3
Tumour surface, overall values (Mean) [1, 12]: 147.93 mm^2
Tumour surface, overall values (Median) [1, 12]: 150 mm^2
Tumour volume, overall values (Mean) [1, 12]: 809.03 mm^3
Tumour volume, overall values (Median) [1, 12]: 800 mm^3
Tumour surface, overall values (Mean) [1, 13]: 185.33 mm^2
Tumour surface, overall values (Median) [1, 13]: 198 mm^2
Tumour volume, overall values (Mean) [1, 13]: 1129.9 mm^3
Tumour volume, overall values (Median) [1, 13]: 1089 mm^3
Differences in KLN 205 tumour growth rate vs. placebo, statistical significance p (t-test) ([1]; either in surface or volume, all days scored after day 20th): < 0.05
Inhibition of the in vivo growth of Lewis lung tumour in inbred mice, in words [2, 3]: inhibit the in vivo growth
SURFACE Overall values (Mean) [2, 14]: 0 mm^2
SURFACE Overall values (Median) [2, 14]: 0 mm^2
VOLUME Overall values (Mean) [2, 14]: 0 mm^3
VOLUME Overall values (Median) [2, 14]: 0 mm^3
SURFACE Overall values (Mean) [2, 15]: 2.4 mm^2
SURFACE Overall values (Median) [2, 15]: 0 mm^2
VOLUME Overall values (Mean) [2, 15]: 3.27 mm^3
VOLUME Overall values (Median) [2, 15]: 0 mm^3
SURFACE Overall values (Mean) [2, 16]: 6.73 mm^2
SURFACE Overall values (Median) [2, 16]: 4 mm^2
VOLUME Overall values (Mean) [2, 16]: 11.23 mm^3
VOLUME Overall values (Median) [2, 16]: 4 mm^3
SURFACE Overall values (Mean) [2, 17]: 20.73 mm^2
SURFACE Overall values (Median) [2, 17]: 25 mm^2
VOLUME Overall values (Mean) [2, 17]: 49.97 mm^3
VOLUME Overall values (Median) [2, 17]: 56 mm^3
SURFACE Overall values (Mean) [2, 18]: 58.33 mm^2
SURFACE Overall values (Median) [2, 18]: 49 mm^2
VOLUME Overall values (Mean) [2, 18]: 269.1 mm^3
VOLUME Overall values (Median) [2, 18]: 171.5 mm^3
SURFACE Overall values (Mean) [2, 19]: 106.07 mm^2
SURFACE Overall values (Median) [2, 19]: 90 mm^2
VOLUME Overall values (Mean) [2, 19]: 619.43 mm^3
VOLUME Overall values (Median) [2, 19]: 405 mm^3
SURFACE Overall values (Mean) [2, 20]: 160.07 mm^2
SURFACE Overall values (Median) [2, 20]: 120 mm^2
VOLUME Overall values (Mean) [2, 20]: 1076.9 mm^3
VOLUME Overall values (Median) [2, 20]: 600 mm^3
SURFACE Overall values (Mean) [2, 21]: 204.93 mm^2
SURFACE Overall values (Median) [2, 21]: 169 mm^2
VOLUME Overall values (Mean) [2, 21]: 1530.4 mm^3
VOLUME Overall values (Median) [2, 21]: 1080 mm^3
Differences in Lewis Lung tumour growth rate vs. placebo, statistical significance p (Mann-Whitney U test) ([2]; either in surface or volume, days 10th, 13th and 17 th): < 0.05
